From patent US5942502A, “Method of treating diseases resulting from calcium metabolism disorders” (priority 1998, dated 1999)
“Also recorded” adds a separate entry of the source. Read-outs that look alike come from different tables or passages of the source.

Tests used:
[1] = Repeated-dose clinical study of ST-630 (7 days, postprandial); type: in vivo, human; settings: 1.0 μg/day for 7 days
Protocol: 4.1. Dosing schedule (postprandial administration)
*^1 : Blood samples are collected only immediately before
*^2 : Blood samples are collected only immediately before
*^3 : Only cereatinie are determined immediately before and 12 hr
after administration on day 1, immediately before and 12, 24, 48, 72, 96
and 120 hr after the last administration, and at followup examination. On
days 2-6, blood samples are collected only immediately before
ST-630 was administered postprandially at a daily dose of 1.0 μg for 7 days.

[2] = test system: vitamin D responsive systems of vitamin D-deficient animals; settings: cited from earlier work; for activity relative to 1,25-(OH)2 D3: vitamin D responsive systems, vitamin D-deficient animals, times that of 1,25-(OH)2 D3
[3] = test system: Ovariectomized rats; assay: Ovariectomized rat model: serum Ca and P, femur dry weight, ash weight and breaking load; type: in vivo, Female Fisher rats; settings: for Serum Pi / Breaking load (femur) / Serum Ca / Ash weight (femur) / Dry weight (femur): three times a week for 23 weeks, Mean ± SD; for Serum Pi: OVX 2.6 ± 0.4; for Breaking load (femur): OVX 9.0 ± 0.9; for Serum Ca: OVX 9.7 ± 0.2; for Ash weight (femur): OVX 285 ± 19; for Dry weight (femur): OVX 431 ± 26
Text: Female Fisher rats, 9-10 months old, were ovariectomized and were fed a vitamin D-deficient diet containing 0.45% calcium and 0.3% phosphorus. The rats were given 15IU of vitamin D3 orally once a week throughout this experiment. Four weeks after the surgery, the rats were orally adminstered three times a week for 23 weeks with ST-630 (30, 100 or 300 pmole/kg) or 1α-hydroxyvitamin D3 (100 or 300 pmole/kg).

[4] = Single-dose clinical study of ST-630: blood biochemistry / serum electrolytes; type: in vivo, human
Text: (2) Blood biochemistry: Total protein fraction, BUN, creatinine, total cholesterol, neutral fat, phospholipid, serum electrolytes (Na, K, Cl, Ca, P, Mg), Al-P, GOT, GPI, LDH, γ-GTP, CPK, blood glucose, HBs antigen/antibody*^1, serologic test for syphilis, activated partial thrombo-plastin time *^2 and prothrombin time *^2
(§1) (1) Serum concentrations: ST-630, Ca, P, Mg and Al-P

[5] = Subjective and objective symptoms (incl. ESR) in the clinical studies of ST-630; type: in vivo, human
Text: 2) Questioning, auscultation, percussion
5. Subjective and objective symptoms

[6] = Overall safety / tolerance between effectiveness and toxicity in humans; type: in vivo, human
[7] = test system: female beagle dogs; assay: Chronic dosing toxicity, three months oral; type: in vivo, dog (beagle)
Protocol: With respect to chronic dosing, a group of six female beagle dogs were given 0.3 mg/kg of either ST-630 or 1α-hydroxyvitamin D3 orally each day for three months.

[8] = Study of dietary effect on the absorption of ST-630 (crossover); type: in vivo, human; settings: 2.0 μg, postprandial (30 min after meal) compared with fasting (FIG. 13)
Protocol: as §1
*: Administration at 30 min after meal.
The dietary effect on the absorption of ST-630 was studied by the crossover method at the dose of 2.0 μg.

[9] = Single-dose clinical study of ST-630: urinary excretions of electrolytes; type: in vivo, human
Text: (3) Urinalysis: pH, occult blood, protein, glucose, bilirubin, urobilinogen, sediment and creatinine clearance (24-hour method)
(2) Urinary excretion ST-630, Ca, P, Mg, Na, K, creatinine, c-AMP*^3 and hydroxyproline*^3

[10] = test system: male rats; assay: Acute toxicity (LD50), single dose; type: in vivo, rat; settings: rats, from LD50
Text: (§2) LD50 data represent the dose administered resulting in the death of 50% of the test group.

[11] = Acute toxicity (LD50), single dose; type: in vivo, rat; settings: rat, in vivo; single (acute) dose, male rats, at 14 days
Text: as §2

[12] = vitamin D-like activity compared with 1,25-dihydroxycholecalciferol
[13] = compared with 1α-hydroxyvitamin D3
[14] = dose response over the doses tested
[15] = single dose 0.25, 0.5, 1 and 2 μg/man (FIGS. 1-4)
[16] = single doses 0.0125 μg to 2.0 μg
[17] = 0.0125 μg single dose, subject 1, last value, no date
[18] = 2.0 μg single dose, subject 8, last value, no date

C=C1/C(=C\C=C2/CCC[C@]3(C)[C@@H]([C@H](C)CCCC(O)(C(F)(F)F)C(F)(F)F)CC[C@@H]23)C[C@@H](O)C[C@@H]1O [ST-630, 26,26,26,27,27,27-hexafluoro-1α,25-dihydroxycholecalciferol]
serum Ca concentration change ([1]; postprandial): tended to be elevated slightly but the change was within the normal range | urinary Ca/Cr ratio ([1]; postprandial): increased with the number of dosings | recovery of urinary Ca/Cr ratio ([1]; after completion of administration): recovered to the control value immediately after completion of administration | activity relative to 1,25-(OH)2 D3 ([2]; listed as 26,26,26,27,27,27-F6 -1,25-(OH)2 D3): at least ten times greater | activity relative to 1,25-(OH)2 D3 ([2]; listed as 26,26,26,27,27,27-hexafluoro derivative of 1α,25-dihydroxycholecalciferol): at least ten times greater | activity relative to 1,25-(OH)2 D3 ([2]; listed as 26,26,26,27,27,27-hexafluoro-1α,25-dihydroxyvitamin D3): about ten times more active | ability to mobilize calcium from bone [2, 12]: substantially greater | ability to stimulate calcium transport in the intestine [2, 12]: substantially greater | anti-rachitic activity according to the rat line test [2, 12]: substantially greater | Serum Pi ([3]; 30 pmole/kg p.o.): 3.6 ± 0.3 mg/100 ml | Breaking load (femur) ([3]; 30 pmole/kg p.o.): 9.7 ± 0.8 kg | Serum Ca ([3]; 30 pmole/kg p.o.): 9.9 ± 0.4 mg/100 ml | Ash weight (femur) ([3]; 30 pmole/kg p.o.): 298 ± 22 mg | Dry weight (femur) ([3]; 30 pmole/kg p.o.): 449 ± 29 mg | Serum Pi ([3]; 100 pmole/kg p.o.): 4.8 ± 0.2 mg/100 ml | Breaking load (femur) ([3]; 100 pmole/kg p.o.): 10.6 ± 0.5 kg | Serum Ca ([3]; 100 pmole/kg p.o.): 10.6 ± 04 mg/100 ml | Ash weight (femur) ([3]; 100 pmole/kg p.o.): 319 ± 12 mg | Dry weight (femur) ([3]; 100 pmole/kg p.o.): 472 ± 21 mg | Serum Pi ([3]; 300 pmole/kg p.o.): 5.3 ± 0.3 mg/100 ml | Breaking load (femur) ([3]; 300 pmole/kg p.o.): 12.4 ± 1.3 kg | Serum Ca ([3]; 300 pmole/kg p.o.): 11.7 ± 0.7 mg/100 ml | Ash weight (femur) ([3]; 300 pmole/kg p.o.): 362 ± 32 mg | Dry weight (femur) ([3]; 300 pmole/kg p.o.): 538 ± 47 mg | prevention of the decrease of ash weight of the femur [3, 13]: more potently | prevention of the decrease of breaking load of the femur [3, 13]: more potently | prevention of the decrease of dry weight of the femur [3, 13]: more potently | increase of mechanical strength of the bone ([3]; compared with 1α-hydroxyvitamin D3 at doses causing the same increase of serum calcium (FIG. 24)): more potently | serum calcium level [3, 14]: increased dose-dependently | serum phosphorus level [3, 14]: increased dose-dependently | toxicity at higher doses in humans ([4]; 0.5 μg, 1 μg and 2 μg (FIGS. 2-4)): without toxicity problems | serum Ca change [4, 15]: No major change | serum Mg change [4, 15]: No major change | serum P change [4, 15]: No major change | blood biochemistry change [4, 16]: No change | serum electrolytes change [4, 16]: No change | ESR 1 h ([5]; 0.0125 μg single dose, subject 1, date 2/4 (before: 3)): 3 | ESR 2 h ([5]; 0.0125 μg single dose, subject 1, date 2/4 (before: 7)): 8 | ESR 1 h ([5]; 0.0125 μg single dose, subject 1, date 2/8 (before: 3)): 3 | ESR 2 h ([5]; 0.0125 μg single dose, subject 1, date 2/8 (before: 7)): 8 | ESR 1 h ([5]; 0.0125 μg single dose, subject 1, follow-up examination 2/15 (before: 3)): 13 | ESR 2 h ([5]; 0.0125 μg single dose, subject 1, follow-up examination 2/15 (before: 7)): 34 | ESR 1 h [5, 17]: 1 | ESR 2 h [5, 17]: 8 | ESR 1 h ([5]; 2.0 μg single dose, subject 8, date 8/15 (before: 5)): 4 | ESR 2 h ([5]; 2.0 μg single dose, subject 8, date 8/15 (before: 8)): 8 | ESR 1 h ([5]; 2.0 μg single dose, subject 8, date 8/19 (before: 5)): 4 | ESR 2 h ([5]; 2.0 μg single dose, subject 8, date 8/19 (before: 8)): 11 | ESR 1 h ([5]; 2.0 μg single dose, subject 8, follow-up examination 8/27 (before: 5)): 11 | ESR 2 h ([5]; 2.0 μg single dose, subject 8, follow-up examination 8/27 (before: 8)): 27 | ESR 1 h [5, 18]: 3 | ESR 2 h [5, 18]: 8 | Symptom ([5]; repeated-dose study, 1.0 μg/day, 7 days, subjects 1-8): None and No symptom | increase in erythrocyte sedimentation rate, number of cases ([5]; single dose 0.0125 μg (Step 1)): one case | headache (symptom) ([5]; single dose 0.25 μg (Step 5)): Headache; also recorded: one case | increase in erythrocyte sedimentation rate, number of cases ([5]; single dose 2.0 μg (Step 8)): one case | Symptom ([5]; study of dietary effect, 2.0 μg, subjects 1-10): None and No symptom | calcium absorption [6]: promoted calcium absorption | hypercalcemia [6]: no hypercalcemia | safety [6]: no remarkable problem on safety | "window" or tolerance between effectiveness and toxicity in humans ([6]; up to 2.0 μg): relatively large | deaths ([7]; 0.3 mg/kg orally each day for three months): all six dogs | toxicity relative to 1α-hydroxyvitamin D3 ([7]; conclusion for rats and dogs): much more toxic | AUC (area under the serum concentration curve), postprandial versus fasting [8]: slightly higher | total urinary Ca excretion ([9]; single dose 2.0 μg): increases | urinary Ca/Cr ratio ([9]; single dose 2.0 μg): increases | urinary electrolytes ([9]; single doses below 2.0 μg (FIGS. 5-12)): no significant increases | toxicity relative to 1α-hydroxyvitamin D3 [10]: about five times more toxic | LD50 at 336 h [11]: 0.043 mg/kg
